Values quoted from earlier work as cited in patent publication US8551975B1, “Hyaluronic acid in soft gel form” (Soft Gel Technologies, Inc., priority 2001, dated 2013).

## Hyaluronic Acid [HA]
epidermis, endogenous HA
  half-life in the epidermis: less than one day
normally, endogenous HA synthesized and catabolized in tissues
  half-life of an HA molecule: 2-3 weeks
